Data as given in article PMC5398096 (Bioorganic & medicinal chemistry letters, 2017).
Read-outs that look alike come from different tables or passages of the source.

Experiments:
A431 cancer cells [1] = conditions: read-out: A431 Cytotoxicity IC50; previously evaluated lead compounds; cited from earlier work
human DHFR = target: T1, human DHFR (Homo sapiens, UniProt P00374); conditions: number in parentheses; at the concentration stated in the same cell (μM); cited from earlier work
T1 sequence (P00374 1-187): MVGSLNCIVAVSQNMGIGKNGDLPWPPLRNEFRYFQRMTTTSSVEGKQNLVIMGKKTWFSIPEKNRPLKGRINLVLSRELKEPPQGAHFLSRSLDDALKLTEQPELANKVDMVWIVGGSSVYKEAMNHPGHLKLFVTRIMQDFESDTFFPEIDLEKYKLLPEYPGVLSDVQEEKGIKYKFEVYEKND

E. coli DHFR [2] = target: T2, E. coli DHFR (Escherichia coli, UniProt P0ABQ4); conditions: number in parentheses; at the concentration stated in the same cell (μM); cited from earlier work
T2 sequence (P0ABQ4 whole entry): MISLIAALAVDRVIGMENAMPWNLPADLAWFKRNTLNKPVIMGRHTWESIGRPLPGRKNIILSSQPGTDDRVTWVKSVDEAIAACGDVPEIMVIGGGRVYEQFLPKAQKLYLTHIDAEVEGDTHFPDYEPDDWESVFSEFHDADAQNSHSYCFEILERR

COLO-205 xenograft = COLO-205 xenograft mouse model, cited from earlier work
VEGFR-2 (Flk-1) = VEGFR-2 (Flk-1) (Homo sapiens, UniProt P35968); experiment: VEGFR-2 kinase inhibition, phosphotyrosine ELISA in whole cells; assay type: cell-based; conditions: for VEGFR-2 assay: fold less potent than semaxanib: relative to standard semaxanib
Sequence of VEGFR-2 (Flk-1) (P35968 20-1356): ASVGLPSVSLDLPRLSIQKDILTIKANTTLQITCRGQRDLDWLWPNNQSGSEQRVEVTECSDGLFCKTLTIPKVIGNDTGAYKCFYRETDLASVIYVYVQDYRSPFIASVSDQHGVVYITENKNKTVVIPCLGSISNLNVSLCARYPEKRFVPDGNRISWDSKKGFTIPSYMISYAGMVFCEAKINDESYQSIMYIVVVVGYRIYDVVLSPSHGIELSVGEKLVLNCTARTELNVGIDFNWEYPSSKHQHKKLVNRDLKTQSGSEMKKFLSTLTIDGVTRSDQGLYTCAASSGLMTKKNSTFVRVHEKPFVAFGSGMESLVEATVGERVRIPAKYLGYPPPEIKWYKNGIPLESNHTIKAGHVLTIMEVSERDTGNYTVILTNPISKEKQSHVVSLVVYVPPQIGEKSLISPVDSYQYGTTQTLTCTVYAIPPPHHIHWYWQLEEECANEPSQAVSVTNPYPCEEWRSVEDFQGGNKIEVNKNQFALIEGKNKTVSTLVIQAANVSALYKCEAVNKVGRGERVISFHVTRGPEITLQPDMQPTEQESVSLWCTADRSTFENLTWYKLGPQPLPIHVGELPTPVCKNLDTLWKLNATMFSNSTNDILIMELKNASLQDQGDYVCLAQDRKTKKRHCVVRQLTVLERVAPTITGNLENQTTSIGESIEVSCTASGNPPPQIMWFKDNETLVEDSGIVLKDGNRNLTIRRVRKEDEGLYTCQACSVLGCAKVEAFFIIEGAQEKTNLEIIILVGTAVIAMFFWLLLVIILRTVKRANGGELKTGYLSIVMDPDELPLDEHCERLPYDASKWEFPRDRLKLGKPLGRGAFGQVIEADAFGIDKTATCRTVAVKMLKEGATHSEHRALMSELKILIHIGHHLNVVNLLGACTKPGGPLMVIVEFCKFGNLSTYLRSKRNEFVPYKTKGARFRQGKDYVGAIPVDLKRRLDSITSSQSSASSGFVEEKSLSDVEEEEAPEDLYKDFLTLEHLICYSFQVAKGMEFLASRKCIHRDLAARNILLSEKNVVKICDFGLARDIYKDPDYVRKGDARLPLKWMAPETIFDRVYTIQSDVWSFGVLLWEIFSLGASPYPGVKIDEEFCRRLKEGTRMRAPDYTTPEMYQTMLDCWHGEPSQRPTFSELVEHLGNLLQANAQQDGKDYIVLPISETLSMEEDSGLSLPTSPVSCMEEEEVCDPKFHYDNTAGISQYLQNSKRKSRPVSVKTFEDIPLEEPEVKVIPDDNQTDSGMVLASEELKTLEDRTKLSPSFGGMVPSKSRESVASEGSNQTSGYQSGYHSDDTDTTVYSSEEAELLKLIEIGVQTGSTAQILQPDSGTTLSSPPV

EGFR = EGFR (Homo sapiens, UniProt P00533); experiment: EGFR kinase inhibition, phosphotyrosine ELISA in whole cells; assay type: cell-based; conditions: relative to standard 24
Sequence of EGFR (P00533 25-1210): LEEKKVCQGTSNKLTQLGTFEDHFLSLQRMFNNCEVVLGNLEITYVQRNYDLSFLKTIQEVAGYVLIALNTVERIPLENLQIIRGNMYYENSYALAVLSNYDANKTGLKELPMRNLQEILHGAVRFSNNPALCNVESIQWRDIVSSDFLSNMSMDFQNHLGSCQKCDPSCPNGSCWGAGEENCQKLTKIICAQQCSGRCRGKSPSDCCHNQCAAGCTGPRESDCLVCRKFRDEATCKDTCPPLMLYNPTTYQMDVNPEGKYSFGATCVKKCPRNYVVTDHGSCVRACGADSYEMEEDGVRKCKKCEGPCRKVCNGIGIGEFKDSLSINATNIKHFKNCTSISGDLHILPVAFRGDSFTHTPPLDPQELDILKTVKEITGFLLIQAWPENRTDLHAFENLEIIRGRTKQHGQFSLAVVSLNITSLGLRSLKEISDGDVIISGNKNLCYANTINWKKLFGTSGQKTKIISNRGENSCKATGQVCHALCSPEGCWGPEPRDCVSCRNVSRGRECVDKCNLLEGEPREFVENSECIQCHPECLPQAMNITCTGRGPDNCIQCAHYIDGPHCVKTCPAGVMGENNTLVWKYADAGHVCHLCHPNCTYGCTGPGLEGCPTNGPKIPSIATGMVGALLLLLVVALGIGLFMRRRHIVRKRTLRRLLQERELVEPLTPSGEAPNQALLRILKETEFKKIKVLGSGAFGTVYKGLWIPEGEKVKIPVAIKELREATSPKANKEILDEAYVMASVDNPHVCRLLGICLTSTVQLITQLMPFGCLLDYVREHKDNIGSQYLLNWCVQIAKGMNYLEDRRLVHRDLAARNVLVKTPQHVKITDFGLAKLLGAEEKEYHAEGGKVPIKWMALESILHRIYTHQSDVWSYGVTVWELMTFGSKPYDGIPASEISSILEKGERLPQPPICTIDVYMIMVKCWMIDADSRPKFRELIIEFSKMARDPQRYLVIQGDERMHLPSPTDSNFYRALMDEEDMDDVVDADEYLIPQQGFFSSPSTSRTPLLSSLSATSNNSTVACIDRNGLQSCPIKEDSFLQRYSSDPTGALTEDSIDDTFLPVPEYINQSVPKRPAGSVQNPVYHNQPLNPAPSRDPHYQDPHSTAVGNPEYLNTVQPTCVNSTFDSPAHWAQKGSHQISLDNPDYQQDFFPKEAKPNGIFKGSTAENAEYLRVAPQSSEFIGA

PDGFR-β = PDGFR-β (Homo sapiens, UniProt P09619); experiment: PDGFR-β kinase inhibition, phosphotyrosine ELISA in whole cells; assay type: cell-based; conditions: for PDGFR-β assay: fold less active than DMBI: relative to standard DMBI; for PDGFR-β assay: activity in words: even at 200 micromolar concentrations
Sequence of PDGFR-β (P09619 33-1106): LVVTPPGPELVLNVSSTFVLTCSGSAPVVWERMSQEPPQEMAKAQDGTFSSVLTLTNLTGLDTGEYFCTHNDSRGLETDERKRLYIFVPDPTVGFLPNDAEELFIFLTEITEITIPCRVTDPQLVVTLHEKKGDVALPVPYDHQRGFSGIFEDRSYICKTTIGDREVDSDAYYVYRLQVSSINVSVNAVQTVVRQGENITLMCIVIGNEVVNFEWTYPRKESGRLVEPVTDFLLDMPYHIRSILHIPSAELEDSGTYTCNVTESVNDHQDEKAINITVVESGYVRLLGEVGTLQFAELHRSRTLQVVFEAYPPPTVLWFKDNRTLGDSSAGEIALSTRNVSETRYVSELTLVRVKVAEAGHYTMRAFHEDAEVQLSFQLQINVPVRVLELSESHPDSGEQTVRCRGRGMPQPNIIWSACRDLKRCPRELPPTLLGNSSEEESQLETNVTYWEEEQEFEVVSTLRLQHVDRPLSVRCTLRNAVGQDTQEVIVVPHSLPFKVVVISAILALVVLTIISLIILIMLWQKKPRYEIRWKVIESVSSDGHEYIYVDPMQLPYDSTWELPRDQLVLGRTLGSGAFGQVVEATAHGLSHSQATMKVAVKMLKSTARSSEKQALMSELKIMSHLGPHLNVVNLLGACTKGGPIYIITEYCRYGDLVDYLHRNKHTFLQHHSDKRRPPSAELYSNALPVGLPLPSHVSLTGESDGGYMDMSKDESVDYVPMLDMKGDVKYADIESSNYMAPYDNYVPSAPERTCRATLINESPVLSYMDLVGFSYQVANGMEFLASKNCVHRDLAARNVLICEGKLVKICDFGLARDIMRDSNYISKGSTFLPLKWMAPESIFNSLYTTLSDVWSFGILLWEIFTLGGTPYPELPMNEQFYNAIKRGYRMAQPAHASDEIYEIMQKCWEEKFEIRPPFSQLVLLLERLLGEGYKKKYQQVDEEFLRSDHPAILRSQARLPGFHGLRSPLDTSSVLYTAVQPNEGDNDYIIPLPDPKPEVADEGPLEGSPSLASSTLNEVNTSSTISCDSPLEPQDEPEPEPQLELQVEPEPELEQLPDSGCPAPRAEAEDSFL

A431 cancer cells [3] = experiment: A431 cytotoxicity; assay type: cell-based, human; conditions: for A431 cytotoxicity assay: fold less active than cisplatin: relative to standard cisplatin
E. coli TS = E. coli TS (Escherichia coli, UniProt P0A884); experiment: Thymidylate synthase; assay type: biochemical; conditions: number in parentheses; at the concentration stated in the same cell (μM)
Sequence of E. coli TS (P0A884 whole entry): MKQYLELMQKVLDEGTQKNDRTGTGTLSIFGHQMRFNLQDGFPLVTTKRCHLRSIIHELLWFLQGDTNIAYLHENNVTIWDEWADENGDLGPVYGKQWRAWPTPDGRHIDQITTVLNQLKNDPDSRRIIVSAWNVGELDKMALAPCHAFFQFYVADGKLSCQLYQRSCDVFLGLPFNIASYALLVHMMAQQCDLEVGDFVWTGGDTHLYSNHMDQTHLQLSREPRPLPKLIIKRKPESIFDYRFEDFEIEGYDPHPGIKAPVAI

human TS = human TS (Homo sapiens, UniProt P04818); experiment: Thymidylate synthase; assay type: biochemical; conditions: relative to raltitrexed (RTX)
Sequence of human TS (P04818 whole entry): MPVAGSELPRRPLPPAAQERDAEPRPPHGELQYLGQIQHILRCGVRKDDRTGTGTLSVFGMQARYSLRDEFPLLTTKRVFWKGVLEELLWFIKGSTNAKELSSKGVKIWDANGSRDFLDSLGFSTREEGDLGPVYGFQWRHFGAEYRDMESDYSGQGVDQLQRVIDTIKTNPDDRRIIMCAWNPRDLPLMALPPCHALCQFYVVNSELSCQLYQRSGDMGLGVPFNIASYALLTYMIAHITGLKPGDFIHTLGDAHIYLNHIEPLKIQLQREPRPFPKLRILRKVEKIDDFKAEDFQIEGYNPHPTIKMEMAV

E. coli DHFR [4] = target: T2, E. coli DHFR; experiment: Dihydrofolate reductase; assay type: biochemical; conditions: number in parentheses; at the concentration stated in the same cell (μM)

Structure (SMILES): Nc1nc(N)c2c(n1)[nH]c1cccc(Sc3ccccc3)c12 [Compound 1]
- IC50 (A431 cancer cells [1]): 49.2 ± 4.7 µM
- DHFR Human, percent inhibition at the stated concentration (human DHFR): 17%
- DHFR E. coli, percent inhibition at the stated concentration (E. coli DHFR [2]): 35%
- tumor growth inhibition (TGI) (COLO-205 xenograft; 35 mg/kg): 76%
- liver metastases (COLO-205 xenograft; compared with DMBI and control): significantly decreased
- tumor blood vessels (COLO-205 xenograft; compared with DMBI and control): significantly decreased

Structure (SMILES): Cc1ccc(Sc2cccc3[nH]c4nc(N)nc(N)c4c23)cc1 [Compound 2]
- IC50 (A431 cancer cells [1]): 14.1 ± 2 µM
- DHFR Human, percent inhibition at the stated concentration (human DHFR): 7%
- DHFR E. coli, percent inhibition at the stated concentration (E. coli DHFR [2]): 27%

Structure (SMILES): Nc1nc(N)c2c(n1)[nH]c1cccc(Sc3ccc4ccccc4c3)c12 [Compound 3]
- VEGFR-2 assay: fold less potent than semaxanib (VEGFR-2 (Flk-1)): 13 fold
- EGFR assay: fold less active than standard 24 (EGFR): 100 fold
- PDGFR-β assay: fold less active than DMBI (PDGFR-β): 24 fold
- A431 cytotoxicity assay: fold less active than cisplatin (A431 cancer cells [3]): about 4 fold
- TS E. coli, percent inhibition at the stated concentration (E. coli TS): 0%

Structure (SMILES): Nc1nc(N)c2c(n1)[nH]c1cccc(Sc3cccc4ccccc34)c12 [Compound 4]
- VEGFR-2 assay: fold less potent than semaxanib (VEGFR-2 (Flk-1)): 16 fold
- EGFR assay: fold less active than standard 24 (EGFR): 835 fold
- PDGFR-β assay: fold less active than DMBI (PDGFR-β): about 16 fold
- A431 cytotoxicity assay: activity in words (A431 cancer cells [3]; even at 200 micromolar concentration): inactive
- hTS assay: fold less active than RTX (human TS): 6 fold

Structure (SMILES): COc1ccc(OC)c(Sc2cccc3[nH]c4nc(N)nc(N)c4c23)c1 [Compound 5]
- VEGFR-2 assay: fold less potent than semaxanib (VEGFR-2 (Flk-1)): equipotent
- EGFR assay: fold less active than standard 24 (EGFR): 22 fold
- PDGFR-β assay: activity in words (PDGFR-β): inactive
- A431 cytotoxicity assay: fold less active than cisplatin (A431 cancer cells [3]): about 4 fold
- hTS assay: fold less active than RTX (human TS): 3 fold
- DHFR E. coli, percent inhibition at the stated concentration (E. coli DHFR [4]): 0%

Structure (SMILES): COc1ccc(Sc2cccc3[nH]c4nc(N)nc(N)c4c23)cc1 [Compound 6]
- VEGFR-2 assay: fold less potent than semaxanib (VEGFR-2 (Flk-1)): 15 fold
- EGFR assay: fold less active than standard 24 (EGFR): about 100 fold
- PDGFR-β assay: fold less active than DMBI (PDGFR-β): about 16 fold
- A431 cytotoxicity assay: fold less active than cisplatin (A431 cancer cells [3]): about 6 fold
- TS E. coli, percent inhibition at the stated concentration (E. coli TS): 0%

Structure (SMILES): Nc1nc(N)c2c(n1)[nH]c1cccc(Sc3ccc(Cl)cc3)c12 [Compound 7]
- VEGFR-2 assay: activity in words (VEGFR-2 (Flk-1)): inactive
- EGFR assay: fold less active than standard 24 (EGFR): 40 fold
- PDGFR-β assay: activity in words (PDGFR-β): inactive
- A431 cytotoxicity assay: fold less active than cisplatin (A431 cancer cells [3]): equipotent
- hTS assay: fold more potent than RTX (human TS): equipotent
- DHFR E. coli, percent inhibition at the stated concentration (E. coli DHFR [4]): 0%
